The source of these data is ChEMBL document CHEMBL1129670, “Synthesis and structure-activity relationships of N-propyl-N-(4-pyridinyl)-1H-indol-1-amine (besipirdine) and related analogs as potential therapeutic agents for Alzheimer's disease” (J Med Chem, 1996).

The structures appear in SMILES notation.

Assay [1] concerns the target Muscarinic acetylcholine receptor. The format is cell membranes, Membrane.
Description: Inhibition of [3H]quinuclidinyl benzilate (QNB) binding from rat forebrain membranes in the presence of Zn
Assay [2] deals with Sodium-dependent noradrenaline transporter (Homo sapiens, UniProt P23975).
Description: Inhibitory activity against norepinephrine (NE) uptake in rat whole brain synaptosome preparation
Assay [3] concerns Mus musculus. As to the kind of experiment: Antagonistic activity against Scopolamine induced behavioral deficits in mice at dose 0.08 mg/kg sc. The format is functional. The following applies: route subcutaneous.
Assay [4] deals with T1, Adrenergic receptor alpha-2 (Rattus norvegicus, UniProt P22086+P19328+P22909).
T1 sequence (P22086 whole entry): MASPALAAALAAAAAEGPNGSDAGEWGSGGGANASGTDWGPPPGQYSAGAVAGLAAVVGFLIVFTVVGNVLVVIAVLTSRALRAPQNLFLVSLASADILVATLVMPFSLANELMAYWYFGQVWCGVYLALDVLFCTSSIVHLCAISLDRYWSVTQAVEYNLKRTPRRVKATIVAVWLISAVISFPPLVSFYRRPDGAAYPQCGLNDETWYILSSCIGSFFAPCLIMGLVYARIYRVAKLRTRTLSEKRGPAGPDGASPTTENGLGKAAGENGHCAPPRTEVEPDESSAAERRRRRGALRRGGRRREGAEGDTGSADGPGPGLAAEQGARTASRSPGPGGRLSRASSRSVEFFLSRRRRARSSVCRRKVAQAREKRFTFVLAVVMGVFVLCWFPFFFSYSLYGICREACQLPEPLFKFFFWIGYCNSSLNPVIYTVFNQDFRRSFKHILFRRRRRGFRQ
T1 sequence (P19328 whole entry): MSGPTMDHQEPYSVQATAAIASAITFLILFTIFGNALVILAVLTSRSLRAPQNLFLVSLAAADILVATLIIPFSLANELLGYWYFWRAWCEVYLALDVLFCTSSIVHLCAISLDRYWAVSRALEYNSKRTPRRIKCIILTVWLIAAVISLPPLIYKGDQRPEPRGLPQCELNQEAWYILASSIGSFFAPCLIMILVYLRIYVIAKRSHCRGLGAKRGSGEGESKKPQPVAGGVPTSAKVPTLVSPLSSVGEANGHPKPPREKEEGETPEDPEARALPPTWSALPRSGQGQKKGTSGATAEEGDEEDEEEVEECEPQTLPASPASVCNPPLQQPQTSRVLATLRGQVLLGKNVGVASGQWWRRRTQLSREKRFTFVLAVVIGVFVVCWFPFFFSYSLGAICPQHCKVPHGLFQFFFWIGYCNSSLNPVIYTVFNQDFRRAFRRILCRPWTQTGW
T1 sequence (P22909 whole entry): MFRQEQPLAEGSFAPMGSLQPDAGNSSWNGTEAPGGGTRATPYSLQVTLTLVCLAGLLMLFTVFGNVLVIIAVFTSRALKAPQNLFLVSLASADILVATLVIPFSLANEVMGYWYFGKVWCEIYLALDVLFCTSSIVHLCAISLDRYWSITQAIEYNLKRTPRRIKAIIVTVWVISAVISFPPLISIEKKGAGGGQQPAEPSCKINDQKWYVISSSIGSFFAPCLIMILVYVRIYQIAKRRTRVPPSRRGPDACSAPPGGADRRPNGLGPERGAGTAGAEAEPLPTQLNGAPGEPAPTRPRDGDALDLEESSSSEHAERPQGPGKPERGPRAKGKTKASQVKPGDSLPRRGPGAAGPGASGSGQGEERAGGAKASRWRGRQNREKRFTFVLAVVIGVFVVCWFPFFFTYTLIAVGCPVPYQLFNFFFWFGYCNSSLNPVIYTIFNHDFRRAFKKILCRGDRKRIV
Nature of the assay: Inhibitory activity against [3H]clonidine binding to Alpha-2 adrenergic receptor in rat cortex.

A further assay addresses T2, Acetylcholinesterase (Rattus norvegicus, UniProt P37136).
T2 sequence (P37136 whole entry): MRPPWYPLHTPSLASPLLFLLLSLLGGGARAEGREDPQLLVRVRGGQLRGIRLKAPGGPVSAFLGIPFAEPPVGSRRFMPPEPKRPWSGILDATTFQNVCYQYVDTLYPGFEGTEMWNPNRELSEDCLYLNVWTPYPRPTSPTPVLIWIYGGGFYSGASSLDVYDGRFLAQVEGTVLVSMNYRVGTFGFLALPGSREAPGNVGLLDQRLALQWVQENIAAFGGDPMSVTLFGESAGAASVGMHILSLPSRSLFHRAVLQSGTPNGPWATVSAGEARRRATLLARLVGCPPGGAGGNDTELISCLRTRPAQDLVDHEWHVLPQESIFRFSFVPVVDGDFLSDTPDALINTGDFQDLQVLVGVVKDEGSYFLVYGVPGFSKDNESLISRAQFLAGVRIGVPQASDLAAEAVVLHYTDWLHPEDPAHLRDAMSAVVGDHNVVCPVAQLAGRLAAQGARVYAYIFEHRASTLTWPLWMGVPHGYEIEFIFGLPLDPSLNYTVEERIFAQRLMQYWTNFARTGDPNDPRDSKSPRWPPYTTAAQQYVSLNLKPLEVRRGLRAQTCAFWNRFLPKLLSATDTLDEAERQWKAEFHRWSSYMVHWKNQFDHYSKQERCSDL

In assay [5] the test system is Mus musculus. Nature of the assay: Antagonistic activity against Scopolamine induced behavioral deficits in mice at dose 0.02 mg/kg sc. It counts as functional. The settings on record: route subcutaneous.
Assay [6] is filed under the species Mus musculus. Nature of the assay: animal or person.
Description: Effective dose against administration in mice

Chain of Sodium-dependent noradrenaline transporter (P23975 whole entry): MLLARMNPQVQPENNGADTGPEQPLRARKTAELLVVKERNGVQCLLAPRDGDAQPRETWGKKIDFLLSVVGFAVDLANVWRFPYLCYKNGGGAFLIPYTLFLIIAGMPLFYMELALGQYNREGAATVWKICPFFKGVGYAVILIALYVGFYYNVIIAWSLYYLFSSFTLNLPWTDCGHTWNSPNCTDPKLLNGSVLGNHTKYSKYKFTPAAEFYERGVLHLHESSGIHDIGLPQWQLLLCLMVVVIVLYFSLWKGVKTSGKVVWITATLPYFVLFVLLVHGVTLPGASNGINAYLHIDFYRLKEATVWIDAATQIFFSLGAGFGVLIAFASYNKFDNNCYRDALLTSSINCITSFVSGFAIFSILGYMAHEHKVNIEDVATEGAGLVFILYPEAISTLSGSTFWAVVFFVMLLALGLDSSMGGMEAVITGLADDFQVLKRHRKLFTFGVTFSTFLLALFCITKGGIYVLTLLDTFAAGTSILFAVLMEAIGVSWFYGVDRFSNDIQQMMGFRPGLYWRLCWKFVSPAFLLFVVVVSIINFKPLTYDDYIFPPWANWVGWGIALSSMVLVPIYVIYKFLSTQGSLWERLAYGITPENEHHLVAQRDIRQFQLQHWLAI
Description for Acetylcholinesterase: Inhibitory activity against acetylcholinesterase in rat striatal preparation

Regarding `CN(c1ccncc1)n1ccc2ccccc21`, the half-inhibitory concentration (IC50) in assay [1] is 5.1 µM; in assay [2], 1 µM; in assay [4] it was 0.024 µM; on Acetylcholinesterase, greater than 100 µM. Besides, the Response in the assay on Mus musculus [3] and in the assay with Mus musculus [5] was 33% throughout. In addition, in the assay listed under Mus musculus [6], the ED50 was found to be 3.5 mg/kg.

With `c1ccc2c(c1)ccn2Nc1ccncc1`, the IC50 in assay [1] is 16 µM; in assay [2], 2.5 µM; in assay [4] it was 0.008 µM; against Acetylcholinesterase, greater than 100 µM. In addition, the Response was determined as 20% in the assay with Mus musculus [3] and 27% with Mus musculus [5]. The same compound gave a 50% effective dose (ED50) in the assay filed under Mus musculus [6] of 3 mg/kg.

Regarding `CCCN(c1ccncc1)n1ccc2ccccc21` [BESIPIRDINE], the IC50 in assay [1] was 0.94 µM; in assay [2], 0.43 µM; in assay [4] it was 0.33 µM; on Acetylcholinesterase, greater than 100 µM. Besides, the Response with Mus musculus [3] came to 33%; in the assay with Mus musculus [5], 24%. The ED50 in the assay listed under Mus musculus [6] came to 3.1 mg/kg.
